Consider 22 compounds from patent US11174252B2, “Heterocyclic compounds as kinase inhibitors” (priority 2018, dated 2021).

In one assay the target is CDK4 (Homo sapiens (Human), UniProt P11802). The experiment in a line: In vitro kinase inhibition, luminescence (ADP-Glo) with retinoblastoma substrate. The format is biochemical. Background: ADP-Glo first removes unused ATP, then detects ADP through luciferase.
For a further assay, the target named is CDK6 (Homo sapiens (Human), UniProt Q00534). As to the kind of experiment: biochemical. The format is biochemical.
The next assay addresses FMS kinase (Homo sapiens (Human), UniProt P07333). As to the kind of experiment: LanthaScreen kinase assay (ATP, fluorescent-PolyGT substrate, TR-FRET). The format is biochemical. A general note: TR-FRET usually uses a lanthanide donor and a delayed reading to cut background.
The subject of a further assay is MCF-7. The experiment in a line: Cancer cell proliferation assay, single agent. The format is cell-based. As to conditions: Homo sapiens.
A further assay deals with DU4475. As to the kind of experiment: Cancer cell proliferation assay, single agent. It counts as cell-based. Conditions: Homo sapiens.
[1] abbreviates: MCF7, MCF-7 cells, treated for 24-168 hours, read-out: IC50 (nM) MCF-7.
Where [2] appears, read: MCF7, read-out: IC50 (nM) MCF-7.
Where [3] appears, read: DU-4475, read-out: IC50 (nM) DU4475.
The mark [4] stands for this setting: DU-4475, DU4475 cells, treated for 24-168 hours, read-out: IC50 (nM) DU4475.

Structures are written as SMILES. Where two headings read alike, the source gives them in different places.

Chain of FMS kinase (P07333 20-972): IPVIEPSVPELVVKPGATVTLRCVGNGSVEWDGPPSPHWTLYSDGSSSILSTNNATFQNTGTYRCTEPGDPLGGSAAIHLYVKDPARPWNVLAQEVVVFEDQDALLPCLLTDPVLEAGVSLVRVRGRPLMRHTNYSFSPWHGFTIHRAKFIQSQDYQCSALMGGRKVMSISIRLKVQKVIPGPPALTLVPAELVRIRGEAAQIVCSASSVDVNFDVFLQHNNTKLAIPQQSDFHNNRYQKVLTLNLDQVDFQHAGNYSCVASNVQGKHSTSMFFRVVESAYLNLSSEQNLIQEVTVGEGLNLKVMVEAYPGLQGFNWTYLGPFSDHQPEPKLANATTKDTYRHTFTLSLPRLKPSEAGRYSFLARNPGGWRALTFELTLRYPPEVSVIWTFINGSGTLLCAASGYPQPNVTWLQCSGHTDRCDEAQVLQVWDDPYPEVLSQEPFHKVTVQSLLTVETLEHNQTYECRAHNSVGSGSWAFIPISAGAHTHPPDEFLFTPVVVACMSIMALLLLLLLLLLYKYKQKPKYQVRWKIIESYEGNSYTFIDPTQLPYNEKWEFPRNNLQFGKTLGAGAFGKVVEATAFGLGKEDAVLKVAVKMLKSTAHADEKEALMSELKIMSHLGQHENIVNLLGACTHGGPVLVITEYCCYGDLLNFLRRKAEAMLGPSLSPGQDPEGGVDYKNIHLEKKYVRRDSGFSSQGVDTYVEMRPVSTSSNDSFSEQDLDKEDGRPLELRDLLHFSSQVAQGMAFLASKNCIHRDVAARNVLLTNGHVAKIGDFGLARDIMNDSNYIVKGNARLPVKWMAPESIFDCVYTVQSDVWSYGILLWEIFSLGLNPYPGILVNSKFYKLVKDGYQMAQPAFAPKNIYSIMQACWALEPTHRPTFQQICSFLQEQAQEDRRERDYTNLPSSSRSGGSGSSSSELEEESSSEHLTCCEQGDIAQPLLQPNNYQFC
Chain of CDK4 (P11802 whole entry): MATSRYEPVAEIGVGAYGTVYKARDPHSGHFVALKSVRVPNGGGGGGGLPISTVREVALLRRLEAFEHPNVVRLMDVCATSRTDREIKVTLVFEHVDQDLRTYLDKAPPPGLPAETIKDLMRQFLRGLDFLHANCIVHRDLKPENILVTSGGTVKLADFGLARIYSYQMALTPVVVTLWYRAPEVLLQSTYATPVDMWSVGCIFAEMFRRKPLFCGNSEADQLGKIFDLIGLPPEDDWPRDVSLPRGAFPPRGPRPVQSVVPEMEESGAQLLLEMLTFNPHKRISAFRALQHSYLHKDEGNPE
Chain of CDK4 (P24385 whole entry partner): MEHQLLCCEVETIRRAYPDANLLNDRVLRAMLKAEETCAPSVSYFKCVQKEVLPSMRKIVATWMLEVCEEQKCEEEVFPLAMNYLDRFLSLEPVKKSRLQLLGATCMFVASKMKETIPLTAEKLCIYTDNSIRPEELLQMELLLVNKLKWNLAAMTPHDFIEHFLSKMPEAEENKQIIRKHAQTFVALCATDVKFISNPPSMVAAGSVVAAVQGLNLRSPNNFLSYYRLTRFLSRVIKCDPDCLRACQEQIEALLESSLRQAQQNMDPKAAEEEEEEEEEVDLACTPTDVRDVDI

For `CC(C)N1CCOc2c(F)cc(-c3nc(Nc4ccc(C(=O)N5CCC(O)CC5)cn4)ncc3F)cc21` [Compound 460, (6-((5-fluoro-4-(8-fluoro-4-isopropyl-3,4-dihydro-2H-benzo[b][1,4]oxazin-6-yl)pyrimidin-2-yl)amino)pyridin-3-yl)(4-hydroxypiperidin-1-yl)methanone], the IC50 – broadly, the concentration that inhibits the measured activity by half – on CDK4 was 13 nM; against CDK6 it was 18 nM; against FMS kinase, greater than 5000 nM; with MCF-7 (setting [1]), 595 nM.
With `CCCN1CCOc2c(F)cc(-c3nc(Nc4ccc(N5CCNCC5)c(F)c4)ncc3F)cc21` [Compound 36, 5-fluoro-N-(3-fluoro-4-(piperazin-1-yl)phenyl)-4-(8-fluoro-4-propyl-3,4-dihydro-2H-benzo[b][1,4]oxazin-6-yl)pyrimidin-2-amine], the IC50 against CDK4 is 4 nM; against CDK6 it was 5 nM; on FMS kinase it was 102 nM; in the assay with MCF-7 (setting [2]), 40 nM.
Take `CC(C)N1CCOc2c(F)cc(-c3nc(Nc4ccc5c(c4)CCC(N(C)C)C5)ncc3F)cc21` (stereo not drawn) [Compound 47, N6-(5-fluoro-4-(8-fluoro-4-isopropyl-3,4-dihydro-2H-benzo[b][1,4]oxazin-6-yl)pyrimidin-2-yl)-N2,N2-dimethyl-1,2,3,4-tetrahydronaphthalene-2,6-diamine]: the IC50 against CDK4 amounted to 3.5 nM; against CDK6, 4 nM; against FMS kinase, 2.5 nM; with MCF-7 (setting [1]) it was 20 nM.
Consider `CC(C)N1CCOc2c(F)cc(-c3nc(Nc4ccc(N5CCN(C(=O)CO)CC5)cn4)ncc3F)cc21` [Compound 506, 1-(4-(6-((5-fluoro-4-(8-fluoro-4-isopropyl-3,4-dihydro-2H-benzo[b][1,4]oxazin-6-yl)pyrimidin-2-yl)amino)pyridin-3-yl)piperazin-1-yl)-2-hydroxyethan-1-one], for which the IC50 worked out at 354 nM in the assay on MCF-7 (setting [1]) and 1500 nM with DU4475 (setting [3]).
`CC(C)N1CCOc2c(F)cc(-c3nc(Nc4ccc5c(c4)CC(N(C)C)CC5)ncc3F)cc21` (stereo not drawn) [Compound 206, N7-(5-fluoro-4-(8-fluoro-4-isopropyl-3,4-dihydro-2H-benzo[b][1,4]oxazin-6-yl)pyrimidin-2-yl)-N2,N2-dimethyl-1,2,3,4-tetrahydronaphthalene-2,7-diamine]: the IC50 on CDK4 is 56 nM; against CDK6 it was 100 nM; against FMS kinase, 2.5 nM; in the assay on MCF-7 (setting [1]), 670 nM.
As for `CCN1CCOc2c(F)cc(-c3nc(Nc4ccc(N5CCNCC5)c(F)c4)ncc3F)cc21` [Compound 35, 4-(4-ethyl-8-fluoro-3,4-dihydro-2H-benzo[b][1,4]oxazin-6-yl)-5-fluoro-N-(3-fluoro-4-(piperazin-1-yl)phenyl)pyrimidin-2-amine], the IC50 came to 2.5 nM against CDK4, 3 nM on CDK6, 58 nM against FMS kinase and 20 nM in the assay on MCF-7 (setting [2]).
Take `CCN1CCN(Cc2ccc(Nc3ncc(F)c(-c4cc(F)c5c(c4)N(C4CCC(N)CC4)CCO5)n3)nc2)CC1` (stereo not drawn) [Compound 9, 4-(4-(4-aminocyclohexyl)-8-fluoro-3,4-dihydro-2H-benzo[b][, 4]oxazin-6-yl)-N-(5-((4-ethylpiperazin-1-yl)methyl)pyridin-2-yl)-5-fluoropyrimidin-2-amine]: the half-maximal inhibitory concentration (IC50) against CDK4 is greater than 183 nM; against CDK6, 173 nM; against FMS kinase it was greater than 5000 nM; with MCF-7 (setting [2]), 3260 nM.
Consider `CC1CN(C(=O)c2ccc(Nc3ncc(F)c(-c4cc(F)c5c(c4)N(C(C)C)CCO5)n3)nc2)CC(C)O1` (stereo not drawn) [Compound 511, (2,6-dimethylmorpholino)(6-((5-fluoro-4-(8-fluoro-4-isopropyl-3,4-dihydro-2H-benzo[b][1,4]oxazin-6-yl)pyrimidin-2-yl)amino)pyridin-3-yl)methanone], for which the IC50 in the assay on MCF-7 (setting [1]) was 648 nM; in the assay with DU4475 (setting [4]), 3790 nM.
Turning to `Fc1cnc(Nc2ccc(N3CCNCC3)cn2)nc1-c1cc(F)c2c(c1)NCCO2` [Compound 3, 5-fluoro-4-(8-fluoro-3,4-dihydro-2H-benzo[b][1,4]oxazin-6-yl)-N-(5 (piperazin-1-yl)pyridin-2-yl)pyrimidin-2-amine], the results for the IC50 against CDK4, against CDK6 and on FMS kinase were 3 nM, 5.7 nM and greater than 5000 nM, respectively.
As to `CC(C)N1CCOc2c(F)cc(-c3nc(Nc4cn(C5CCNCC5)cn4)ncc3F)cc21` [Compound 504, 5-fluoro-4-(8-fluoro-4-isopropyl-3,4-dihydro-2H-benzo[b][1,4]oxazin-6-yl)-N-(1-(piperidin-4-yl)-1H-imidazol-4-yl)pyrimidin-2-amine], the IC50 with MCF-7 (setting [2]) was determined as 1940 nM; in the assay with DU4475 (setting [3]), 4150 nM.
Take `CC(C)N1CCOc2c(F)cc(-c3nc(Nc4ccc(C(N)=O)c(F)c4)ncc3F)cc21` [Compound 790, 2-fluoro-4-((5-fluoro-4-(8-fluoro-4-isopropyl-3,4-dihydro-2H-benzo[b][1,4]oxazin-6-yl)pyrimidin-2-yl)amino)benzamide]: the values for the IC50 on CDK6, with MCF-7 (setting [1]) and with DU4475 (setting [4]) were 3 nM, 17 nM and 20 nM, respectively.
Regarding `CC(C)N1CCOc2c(F)cc(-c3nc(Nc4cn(C5CCN(C)CC5)cn4)ncc3F)cc21` [Compound 496, 5-fluoro-4-(8-fluoro-4-isopropyl-3,4-dihydro-2H-benzo[b][1,4]oxazin-6-yl)-N-(1-(1-methylpiperidin-4-yl)-1H-imidazol-4-yl)pyrimidin-2-amine], the figures for the half-maximal inhibitory concentration (IC50) in the assay on MCF-7 (setting [2]) and in the assay with DU4475 (setting [3]) were 1450 nM and 3420 nM, respectively.
With `CC(C)N1CCOc2c(F)cc(-c3nc(Nc4ccc(C5CCNCC5)c(C(F)(F)F)c4)ncc3F)cc21` [Compound 438, 5-fluoro-4-(8-fluoro-4-isopropyl-3,4-dihydro-2H-benzo[b][1,4]oxazin-6-yl)-N-(4-(piperidin-4-yl)-3-(trifluoromethyl)phenyl)pyrimidin-2-amine], the IC50 at CDK4 was found to be 41 nM; on CDK6, 74 nM; on FMS kinase it was 5 nM; in the assay with MCF-7 (setting [1]), 200 nM.
With `CN1CCOc2c(F)cc(-c3nc(Nc4ccc(N5CCNCC5)c(F)c4)ncc3F)cc21` [Compound 34, 5-fluoro-N-(3-fluoro-4-(piperazin-1-yl)phenyl)-4-(8-fluoro-4-methyl-3,4-dihydro-2H-benzo[b][1,4]oxazin-6-yl)pyrimidin-2-amine], the IC50 against CDK4 was found to be 3 nM; at CDK6, 6 nM; on FMS kinase it was 42 nM; in the assay on MCF-7 (setting [2]), 50 nM.
In the case of `CC(C)N1CCOc2c(Cl)cc(-c3nc(Nc4ccc(N5CCNCC5)c(F)c4)ncc3Cl)cc21` [Compound 52, 5-chloro-4-(8-chloro-4-isopropyl-3,4-dihydro-2H-benzo[b][1,4]oxazin-6-yl)-N-(3-fluoro-4-(piperazin-1-yl)phenyl)pyrimidin-2-amine], the IC50 stood at 89 nM against CDK4, 200 nM at CDK6, 14 nM against FMS kinase and 695 nM with MCF-7 (setting [1]).
Regarding `CC(C)N1C(=O)COc2c(F)cc(-c3nc(Nc4ccc(N5CCNCC5)cn4)ncc3F)cc21` [Compound 2, 8-fluoro-6-(5-fluoro-2-(5-(piperazin-1-yl)pyridin-2-ylamino)pyrimidin-4-yl)-4-isopropyl-2H-benzo[b][1,4]oxazin-3(4H)-one], the IC50 at CDK4 is 6 nM; on CDK6, 6.9 nM; against FMS kinase it was greater than 5000 nM.
Consider `CC(C)N1CCOc2c(F)cc(-c3nc(Nc4ccc(C5CCN(C)CC5)c(C5CC5)n4)ncc3F)cc21` [Compound 847, N-(6-cyclopropyl-5-(1-methylpiperidin-4-yl)pyridin-2-yl)-5-fluoro-4-(8-fluoro-4-isopropyl-3,4-dihydro-2H-benzo[b][1,4]oxazin-6-yl)pyrimidin-2-amine], for which the IC50 against CDK4 was 44 nM; against CDK6, 107 nM.
As to `CC(C)N1CCOc2c(F)cc(-c3nc(Nc4cccc(S(N)(=O)=O)c4)ncc3F)cc21` [Compound 520], the IC50 in the assay with MCF-7 (setting [1]) was 13 nM; in the assay with DU4475 (setting [4]), less than 7 nM.
Turning to `CC1CN(C(C)C)c2cc(-c3nc(Nc4ccc(N5CCNCC5)c(F)c4)ncc3F)cc(F)c2O1` (stereo not drawn) [Compound 32, 5-fluoro-N-(3-fluoro-4-(piperazin-1-yl)phenyl)-4-(8-fluoro-4-isopropyl-2-methyl-3,4-dihydro-2H-benzo[b][1,4]oxazin-6-yl)pyrimidin-2-amine], the IC50 was 12 nM on CDK4, 21 nM on CDK6, 177 nM on FMS kinase and 130 nM in the assay with MCF-7 (setting [1]).
In the case of `CC1CN(c2ccc(Nc3ncc(F)c(-c4cc(F)c5c(c4)N(C(C)C)CCO5)n3)nc2)CCN1` (stereo not drawn) [Compound 10, 5-fluoro-4-(8-fluoro-4-isopropyl-3,4-dihydro-2H-benzo[b][1,4]oxazin-6-yl)-N-(5-(3-methylpiperazin-1-yl)pyridin-2-yl)pyrimidin-2-amine], the IC50 against CDK4 turned out to be 4.5 nM; against CDK6, 2.5 nM; at FMS kinase, 570 nM; with MCF-7 (setting [2]), 280 nM.
Turning to `COCCN1CCN(Cc2ccc(Nc3ncc(F)c(-c4cc(F)c5c(c4)N(C(C)C)CCO5)n3)nc2)CC1` [Compound 524, 5-fluoro-4-(8-fluoro-4-isopropyl-3,4-dihydro-2H-benzo[b][1,4]oxazin-6-yl)-N-(5-((4-(2-methoxyethyl)piperazin-1-yl)methyl)pyridin-2-yl)pyrimidin-2-amine], the IC50 was determined as 3.5 nM against CDK4, 7.5 nM against CDK6 and 332 nM in the assay with MCF-7 (setting [1]).
On to `CC(C)N1CCOc2c(F)cc(-c3nc(Nc4ccc(N5CCNCC5)c(F)c4)ncc3Cl)cc21` [Compound 30, 5-chloro-N-(3-fluoro-4-(piperazin-1-yl)phenyl)-4-(8-fluoro-4-isopropyl-3,4-dihydro-2H-benzo[b][1,4]oxazin-6-yl)pyrimidin-2-amine], for which the IC50 came out at 1 nM at CDK4, 13 nM on CDK6, 79 nM on FMS kinase and 233 nM in the assay on MCF-7 (setting [2]).
